Measurements published in patent US20230355598A1, “PYRROLIDINE COMPOUNDS TO TREAT XERODERMA PIGMENTOSUM” (Clinuvel (UK) Ltd., priority 2020, published 2023).

System: Melanocytes
Experiment: Measurement of UV-induced apoptosis by Annexin Va staining
Assay type: cell-based
Settings: melanocytes in medium lacking BPE; treated 4 days prior to and 24 h after UV dose 105 mJ/cm^2; vs control
Protocol: Melanocytes were treated with the different concentrations of the pyrrolidine compound for 4 days prior to, and 24 h after exposure to a UV dose (105 mJ/cm^2), then stained for Annexin Va staining. The data were collected as percent increase above control, with triplicate dishes included in each group. Effect of the pyrrolidine compound vs control on the UV-induced apoptosis were determined in melanocyte strains. Floating as well as attached cells were harvested and stained for Annexin V, and analyzed by flow cytometry.

For `COC[C@H]1CN(C(=O)[C@]2(F)CN(C3CCCC3)C[C@H]2c2ccc(OC)cc2)C[C@@H]1c1ccc(C(F)(F)F)cc1N1CCC(C(=O)O)CC1` [Dersimelagon, 1-{2-[(3S,4R)-1-{[(3R,4R)-1-cyclopentyl-3-fluoro-4-(4-methoxyphenyl)pyrrolidin-3-yl]carbonyl}-4-(methoxymethyl)pyrrolidin-3-yl]-5-(trifluoromethyl)phenyl}piperidine-4-carboxylic acid], the “Effect on UV-induced apoptosis (Annexin V staining, flow cytometry)” value was “beneficial anti-apoptotic effects”.
